Test results from patent US8143243B2, “Compounds for the treatment of hepatitis C” (Bristol-Myers Squibb Company, priority 2007, dated 2012).
Read-outs that look alike come from different tables or passages of the source.

How the values were obtained:
HCV replicon cells = test: HCV replicon FRET / luciferase assay; assay type: cell-based; conditions: Hepatitis C virus
Excerpt: FRET Assay Preparation. To perform the HCV FRET screening assay, 96-well cell culture plates were used. The FRET peptide (Anaspec, Inc.) (Taliani et al., Anal. Biochem. 1996, 240, 60-67) contains a fluorescence donor, EDANS, near one end of the peptide and an acceptor, DABCYL, near the other end. The fluorescence of the peptide is quenched by […] resonance energy transfer (RET) between the donor and the acceptor, but as the NS3 protease cleaves the peptide the products are released from RET quenching and the fluorescence of the donor becomes apparent. The assay reagent was made as follows: 5× cell Luciferase cell culture lysis reagent from Promega (#E153A) diluted to 1× with dH2O, NaCl added to 150 mM final, the FRET peptide diluted to 20 μM final from a 2 mM stock.
To prepare plates, HCV replicon cells, with or without a Renilla luciferase reporter gene, were trypsinized and placed into each well of a 96-well plate with titrated test compounds added in columns 3 through 12; columns 1 and 2 contained a control compound (HCV protease inhibitor), and the bottom row contained cells without compound. The plates were then placed in a CO2 incubator at 37° C.
Assays. Subsequent to addition of the test compounds described above (FRET Assay Preparation), at various times the plate was removed and Alamar blue solution (Trek Diagnostics, #00-100) was added per well as a measure of cellular toxicity. After reading in a Cytoflour 4000 instrument (PE Biosystems), plates were rinsed with PBS and then used for FRET assay by the addition of 30 ul of the FRET peptide assay reagent described above (FRET Assay Preparation) per well. The plate was then placed into the Cytoflour 4000 instrument which had been set to 340 excite/490 emission, automatic mode for 20 cycles and the plate read in a kinetic mode. Typically, the signal to noise using an endpoint analysis after the reads was at least three-fold. Alternatively, after Alamar blue reading, plates were rinsed with PBS, 50 ul of DMEM (high glucose) without phenol red was added and plates were then used for luciferase assay using the Promega Dual-Glo Luciferase Assay System.
Compound analysis was determined by quantification of the relative HCV replicon inhibition and the relative cytotoxicity values. To calculate cytoxicity values, the average Alamar Blue fluorescence signals from the control wells were set as 100% non-toxic. The individual signals in each of the compound test wells were then divided by the average control signal and multiplied by 100% to determine […]. To calculate the HCV replicon inhibition values, an average background value was obtained from the two wells containing the highest amount of HCV protease inhibitor at the end of the assay period. These numbers were similar to those obtained from naïve Huh-7 cells.
The background numbers were then subtracted from the average signal obtained from the control wells and this number was used as 100% activity. The individual signals in each of the compound test wells were then divided by the averaged control values after background subtraction and multiplied by 100% to determine percent activity. EC50 values for a protease inhibitor titration were calculated as the concentration which caused a 50% reduction in FRET or luciferase activity. The two numbers generated for the compound plate, percent cytoxicity and percent activity were used to determine compounds of interest for further analysis.

HCV NS5B = biological target: T1, HCV NS5B (Hepatitis C virus genotype 1b, UniProt Q9WMX2); test: HCV NS5B RdRp enzyme assay (standard / modified); assay type: biochemical
T1 construct: The protein was expressed with an 18 amino acid C-terminal truncation to enhance the solubility; made in house; host or cells: E. coli BL21 (DE3)
T1 sequence (Q9WMX2 2420-2992): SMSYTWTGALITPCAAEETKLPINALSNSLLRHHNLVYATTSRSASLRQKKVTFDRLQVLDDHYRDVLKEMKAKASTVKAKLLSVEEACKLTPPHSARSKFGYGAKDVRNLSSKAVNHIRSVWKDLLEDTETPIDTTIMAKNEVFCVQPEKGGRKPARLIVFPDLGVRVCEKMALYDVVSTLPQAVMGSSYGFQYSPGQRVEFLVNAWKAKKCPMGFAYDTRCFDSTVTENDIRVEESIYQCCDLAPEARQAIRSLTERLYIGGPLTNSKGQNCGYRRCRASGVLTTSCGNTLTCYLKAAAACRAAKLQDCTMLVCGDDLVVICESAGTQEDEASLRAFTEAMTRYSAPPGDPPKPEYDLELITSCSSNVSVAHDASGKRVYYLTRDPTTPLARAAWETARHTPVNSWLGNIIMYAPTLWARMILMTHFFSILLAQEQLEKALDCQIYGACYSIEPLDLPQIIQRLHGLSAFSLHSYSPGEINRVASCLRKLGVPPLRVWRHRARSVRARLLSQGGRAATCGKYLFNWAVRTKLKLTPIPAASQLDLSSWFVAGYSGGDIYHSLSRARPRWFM
Method: HCV NS5B RdRp cloning, expression, and purification. The cDNA encoding the NS5B protein of HCV, genotype 1b, was cloned into the pET21a expression vector. The protein was expressed with an 18 amino acid C-terminal truncation to enhance the solubility. The E. coli competent cell line BL21 (DE3) was used for expression of the protein. Cultures were grown at 37° C. for ˜4 hours until the cultures reached an optical density of 2.0 at 600 nm. The cultures were cooled to 20° C. and induced with 1 mM IPTG. Fresh ampicillin was added to a final concentration of 50 μg/ml and the cells were grown overnight at 20° C.
Cell pellets (3 L) were lysed for purification to yield 15-24 mgs of purified NS5B. The lysis buffer consisted of 20 mM Tris-HCl, pH 7.4, 500 mM NaCl, 0.5% triton X-100, 1 mM DTT, 1 mM EDTA, 20% glycerol, 0.5 mg/ml lysozyme, 10 mM MgCl2, 15 ug/ml deoxyribonuclease I, and Complete TM protease inhibitor tablets (Roche). After addition of the lysis buffer, frozen cell pellets were resuspended using a tissue homogenizer. To reduce the viscosity of the sample, aliquots of the lysate were sonicated on ice using a microtip attached to a Branson sonicator. The sonicated lysate was centrifuged at 100,000×g for 1 hr at 4° C. and filtered through a 0.2 μm filter unit (Corning).
The protein was purified using three sequential chromatography steps: Heparin sepharose CL-6B, polyU sepharose 4B, and Hitrap SP sepharose (Pharmacia). The chromatography buffers were identical to the lysis buffer but contained no lysozyme, deoxyribonuclease I, MgCl2 or protease inhibitor and the NaCl concentration of the buffer was adjusted according to the requirements for charging the protein onto the column. Each column was eluted with a NaCl gradient which varied in length from 5-50 column volumes depending on the column type. After the final chromatography step, the resulting purity of the enzyme is >90% based on SDS-PAGE analysis. The enzyme was aliquoted and stored at −80° C.
Standard HCV NS5B RdRp enzyme assay. HCV RdRp genotype 1b assays were run in a final volume of 60 μl in 96 well plates (Costar 3912). The assay buffer is composed of 20 mM Hepes, pH 7.5, 2.5 mM KCl, 2.5 mM MgCl2, 1 mM DTT, 1.6 U RNAse inhibitor (Promega N2515), 0.1 mg/ml BSA (Promega R3961), and 2% glycerol. All compounds were serially diluted (3-fold) in DMSO and diluted further in water such that the final concentration of DMSO in the assay was 2%. HCV RdRp genotype 1b enzyme was used at a final concentration of 28 nM. A polyA template was used at 6 nM, and a biotinylated oligo-dT12 primer was used at 180 nM final concentration. Template was obtained commercially (Amersham 27-4110). Biotinylated primer was prepared by Sigma Genosys. 3H-UTP was used at 0.6 μCi (0.29 μM total UTP). Reactions were initiated by the addition of enzyme, incubated at 30° C. for 60 min, and stopped by adding 25 μl of 50 mM EDTA containing SPA beads (4 μg/μl, Amersham RPNQ 0007). Plates were read on a Packard Top Count NXT after >1 hr incubation at room temperature.
Modified HCV NS5B RdRp enzyme assay. A modified enzyme assay was performed essentially as described for the standard enzyme assay except for the following: The biotinylated oligo dT12 primer was precaptured on streptavidin-coated SPA beads by mixing primer and beads in assay buffer and incubating at room temperature for one hour. Unbound primer was removed after centrifugation. The primer-bound beads were resuspended in 20 mM Hepes buffer, pH 7.5 and used in the assay at final concentrations of 20 nM primer and 0.67 μg/μl beads. Order of addition in the assay: enzyme (14 nM) was added to diluted compound followed by the addition of a mixture of template (0.2 nM), 3H-UTP (0.6 μCi, 0.29 μM), and primer-bound beads, to initiate the reaction; concentrations given are final. Reactions were allowed to proceed for 4 hours at 30° C.
IC50 values for compounds were determined using seven different [I]. […]

[1] = HCV replicon cells, FRET or luciferase readout, read-out: EC50
[2] = HCV RdRp genotype 1b enzyme, read-out: IC50

SMILES | EC50 (HCV replicon cells; [1]) | IC50 (HCV NS5B; [2]) | EC50 (HCV replicon cells) | IC50 (HCV NS5B)
CCOC(=O)N1CCN(C(=O)c2cnn(C)c2C2=Cc3cc(OC)ccc3-c3c(C4CCCCC4)c4ccc(C(=O)NS(=O)(=O)N5CCOCC5)cc4n3C2)CC1 | 1 to 500 nM | 1 to 500 nM |  | 
COc1ccc2c(c1)C=C(c1c(C(=O)N3C4COCC3COC4)cnn1C)Cn1c-2c(C2CCCCC2)c2ccc(C(=O)NS(=O)(=O)N3CCOCC3)cc21 |  |  | 1 to 500 nM | 1 to 500 nM
COc1ccc2c(c1)C=C(c1c(C(=O)N3C[C@@H](C)N(C)[C@@H](C)C3)cnn1C)Cn1c-2c(C2CCCCC2)c2ccc(C(=O)NS(=O)(=O)C(C)C)cc21 | 1 to 500 nM | 1 to 500 nM |  | 
CCN(CC)C(=O)c1sccc1C1=Cc2cc(OC)ccc2-c2c(C3CCCCC3)c3ccc(C(=O)NS(=O)(=O)N(C)C)cc3n2C1 | 1 to 500 nM | 1 to 500 nM |  | 
COc1ccc2c(c1)C=C(c1c(C(=O)N3CCOCC3)cnn1C)Cn1c-2c(C2CCCCC2)c2ccc(C(=O)NS(=O)(=O)N3CCOCC3)cc21 | 1 to 500 nM | < 20 nM |  | 
COc1ccc2c(c1)C=C(c1c(C(=O)N3C[C@@H](C)O[C@@H](C)C3)c(C)nn1C(C)C)Cn1c-2c(C2CCCCC2)c2ccc(C(=O)NS(=O)(=O)C(C)C)cc21 | 1 to 500 nM | 1 to 500 nM |  | 
COc1ccc2c(c1)C=C(c1c(C(=O)N3C[C@@H]4C[C@H]3CO4)cnn1C(C)C)Cn1c-2c(C2CCCCC2)c2ccc(C(=O)NS(=O)(=O)C(C)C)cc21 | 1 to 500 nM | 1 to 500 nM |  | 
COC[C@@H]1CN(C(=O)c2cnn(CC(F)(F)F)c2C2=Cc3cc(OC)ccc3-c3c(C4CCCCC4)c4ccc(C(=O)NS(=O)(=O)C(C)C)cc4n3C2)CCO1 | 1 to 500 nM | 1 to 500 nM |  | 
CCn1nc(C)c(C(=O)N2C[C@@H]3C[C@H]2CO3)c1C1=Cc2cc(OC)ccc2-c2c(C3CCCCC3)c3ccc(C(=O)NS(=O)(=O)C(C)C)cc3n2C1 | 1 to 500 nM | 1 to 500 nM |  | 
COc1ccc2c(c1)C=C(c1c(C(=O)N3CCN(C(C)C)CC3)cnn1C)Cn1c-2c(C2CCCCC2)c2ccc(C(=O)NS(=O)(=O)N3CCOCC3)cc21 | 1 to 500 nM | 1 to 500 nM |  | 
COc1ccc2c(c1)C=C(c1c(C(=O)N3C[C@@H](C)O[C@@H](C)C3)cnn1C)Cn1c-2c(C2CCCCC2)c2ccc(C(=O)NS(=O)(=O)C(C)C)cc21 | 1 to 500 nM | 1 to 500 nM |  | 
COc1ccc2c(c1)C=C(c1c(C(=O)N3C[C@H]4CC[C@@H](C3)N4C)cnn1C)Cn1c-2c(C2CCCCC2)c2ccc(C(=O)NS(=O)(=O)N3CCOCC3)cc21 |  |  | 1 to 500 nM | 1 to 500 nM
COc1ccc2c(c1)C=C(c1occc1C(=O)N1CCOCC1)Cn1c-2c(C2CCCCC2)c2ccc(C(=O)NS(=O)(=O)C(C)C)cc21 | 1 to 500 nM | 1 to 500 nM |  | 
COc1ccc2c(c1)C=C(c1c(C(=O)N3CC4CCC(C3)N4C)cnn1C(C)C)Cn1c-2c(C2CCCCC2)c2ccc(C(=O)NS(=O)(=O)C(C)C)cc21 |  |  | 1 to 500 nM | 1 to 500 nM
COc1ccc2c(c1)C=C(c1c(C(=O)N3CCOCC3)c(C(F)(F)F)nn1C)Cn1c-2c(C2CCCCC2)c2ccc(C(=O)NS(=O)(=O)C(C)C)cc21 | 1 to 500 nM | < 20 nM |  | 
CCN1C[C@@H]2C[C@H]1CN2C(=O)c1cnn(C)c1C1=Cc2cc(OC)ccc2-c2c(C3CCCCC3)c3ccc(C(=O)NS(=O)(=O)C(C)C)cc3n2C1 | 1 to 500 nM | 1 to 500 nM |  | 
COc1ccc2c(c1)C=C(c1c(C(=O)N3CCOCC3)cnn1C)Cn1c-2c(C2CCCCC2)c2ccc(C(=O)O)cc21 | 1 to 500 nM | 1 to 500 nM |  | 
COc1ccc2c(c1)C=C(c1c(C(=O)N3C4CCCC3COC4)cnn1C)Cn1c-2c(C2CCCCC2)c2ccc(C(=O)NS(=O)(=O)CC(C)C)cc21 |  |  | 1 to 500 nM | 1 to 500 nM
COC(=O)c1c(C)nn(C)c1C1=Cc2cc(OC)ccc2-c2c(C3CCCCC3)c3ccc(C(=O)O)cc3n2C1 | 1 to 500 nM | 1 to 500 nM |  | 
COc1ccc2c(c1)C=C(c1c(C(=O)N3CCN(C)CC3)c(C)nn1C(C)C)Cn1c-2c(C2CCCCC2)c2ccc(C(=O)NS(=O)(=O)C(C)C)cc21 | 1 to 500 nM | 1 to 500 nM |  | 
COc1ccc2c(c1)C=C(c1c(C(=O)N3C[C@@H](C)N(C)[C@@H](C)C3)c(C)nn1C)Cn1c-2c(C2CCCCC2)c2ccc(C(=O)NS(=O)(=O)C(C)C)cc21 | 1 to 500 nM | 1 to 500 nM |  | 
COc1ccc2c(c1)C=C(c1c(C(=O)N3CC4CCC(C3)O4)c(C)nn1C)Cn1c-2c(C2CCCCC2)c2ccc(C(=O)NS(=O)(=O)C(C)C)cc21 | 1 to 500 nM | 1 to 500 nM |  | 
CCN1C[C@@H]2C[C@H]1CN2C(=O)c1cnn(C)c1C1=Cc2cc(OC)ccc2-c2c(C3CCCCC3)c3ccc(C(=O)NS(=O)(=O)N4CCOCC4)cc3n2C1 | 1 to 500 nM | 1 to 500 nM |  | 
COc1ccc2c(c1)C=C(c1c(C(=O)N3C4CCC3COC4)cnn1CC(F)(F)F)Cn1c-2c(C2CCCCC2)c2ccc(C(=O)NS(=O)(=O)C(C)C)cc21 |  |  | 1 to 500 nM | 1 to 500 nM
COc1ccc2c(c1)C=C(c1c(C(=O)N3C[C@@H](C)N(C)[C@@H](C)C3)c(C)nn1C(C)C)Cn1c-2c(C2CCCCC2)c2ccc(C(=O)NS(=O)(=O)C(C)C)cc21 | 1 to 500 nM | 1 to 500 nM |  | 
COc1ccc2c(c1)C=C(c1c(C(=O)N3C[C@@H](C)N(C)[C@@H](C)C3)cnn1C)Cn1c-2c(C2CCCCC2)c2ccc(C(=O)NS(=O)(=O)N3CCOCC3)cc21 | 1 to 500 nM | 1 to 500 nM |  | 
